Measurements as given in the NIST ThermoML archive (doi:10.1021/je049912x).
Numbers after ± are expanded uncertainties.

Assays:
[1] = 101.33 kPa, Liquid
[2] = xn = mol fraction of the nth substance listed; conditions: 101.33 kPa, Liquid

## CCCCO [butan-1-ol]
[1]; 298.15 K
  mass density: 807.7 ± 3 kg/m3
  speed of sound: 1238 ± 10 m/s
  viscosity: 2.564 ± 0.12 mPa·s
[1]; 308.15 K
  mass density: 800.1 ± 3.4 kg/m3
  speed of sound: 1211 ± 10 m/s
  viscosity: 2 ± 0.093 mPa·s

## CCCCO [butan-1-ol] + CCc1ccccc1
[2]; 298.15 K, x2 = 0
  mass density: 807.7 ± 3 kg/m3
  speed of sound: 1238 ± 10 m/s
  viscosity: 2.564 ± 0.12 mPa·s
[2]; 308.15 K, x2 = 0
  mass density: 800.1 ± 3.4 kg/m3
  speed of sound: 1211 ± 10 m/s
  viscosity: 2 ± 0.093 mPa·s

## CCO [ethanol]
[1]; 298.15 K
  mass density: 785.5 ± 2.9 kg/m3
  speed of sound: 1160 ± 10 m/s
  viscosity: 1.117 ± 0.027 mPa·s
[1]; 308.15 K
  mass density: 776.3 ± 3.2 kg/m3
  speed of sound: 1112 ± 9 m/s
  viscosity: 0.935 ± 0.024 mPa·s

## CCO [ethanol] + CCc1ccccc1
[2]; 298.15 K, x2 = 0
  mass density: 785.5 ± 2.9 kg/m3
  speed of sound: 1160 ± 10 m/s
  viscosity: 1.117 ± 0.027 mPa·s
[2]; 308.15 K, x2 = 0
  mass density: 776.3 ± 3.2 kg/m3
  speed of sound: 1112 ± 9 m/s
  viscosity: 0.935 ± 0.024 mPa·s

## CCc1ccccc1 [ethylbenzene]
[1]; 298.15 K
  mass density: 862 ± 3.3 kg/m3
  speed of sound: 1312 ± 11 m/s
  viscosity: 0.628 ± 0.017 mPa·s
[1]; 308.15 K
  mass density: 855.5 ± 3.6 kg/m3
  speed of sound: 1276 ± 10 m/s
  viscosity: 0.553 ± 0.015 mPa·s

## CCc1ccccc1 [ethylbenzene] + CCCCO
[2]; 298.15 K, x1 = 0.1035
  mass density: 816.7 ± 3.1 kg/m3
  speed of sound: 1246 ± 10 m/s
  viscosity: 1.985 ± 0.092 mPa·s
[2]; 298.15 K, x1 = 0.205
  mass density: 821.2 ± 3.1 kg/m3
  speed of sound: 1256 ± 10 m/s
  viscosity: 1.565 ± 0.074 mPa·s
[2]; 298.15 K, x1 = 0.3221
  mass density: 828.1 ± 3.1 kg/m3
  speed of sound: 1264 ± 10 m/s
  viscosity: 1.236 ± 0.06 mPa·s
[2]; 298.15 K, x1 = 0.365
  mass density: 831.1 ± 3.1 kg/m3
  speed of sound: 1267 ± 10 m/s
  viscosity: 1.147 ± 0.056 mPa·s
[2]; 298.15 K, x1 = 0.5071
  mass density: 839.6 ± 3.2 kg/m3
  speed of sound: 1277 ± 10 m/s
  viscosity: 0.916 ± 0.046 mPa·s
[2]; 298.15 K, x1 = 0.6494
  mass density: 845.7 ± 3.2 kg/m3
  speed of sound: 1288 ± 11 m/s
  viscosity: 0.764 ± 0.039 mPa·s
[2]; 298.15 K, x1 = 0.8136
  mass density: 854.5 ± 3.3 kg/m3
  speed of sound: 1301 ± 11 m/s
  viscosity: 0.693 ± 0.036 mPa·s
[2]; 298.15 K, x1 = 0.91
  mass density: 858.6 ± 3.3 kg/m3
  speed of sound: 1307 ± 11 m/s
  viscosity: 0.649 ± 0.034 mPa·s
[2]; 298.15 K, x1 = 1
  mass density: 862 ± 3.3 kg/m3
  speed of sound: 1312 ± 11 m/s
  viscosity: 0.628 ± 0.034 mPa·s
[2]; 308.15 K, x1 = 0.1035
  mass density: 808.9 ± 3.4 kg/m3
  speed of sound: 1217 ± 10 m/s
  viscosity: 1.569 ± 0.074 mPa·s
[2]; 308.15 K, x1 = 0.205
  mass density: 815.3 ± 3.4 kg/m3
  speed of sound: 1223 ± 10 m/s
  viscosity: 1.253 ± 0.061 mPa·s
[2]; 308.15 K, x1 = 0.3221
  mass density: 822 ± 3.5 kg/m3
  speed of sound: 1229 ± 10 m/s
[2]; 308.15 K, x1 = 0.365
  mass density: 824.5 ± 3.5 kg/m3
  speed of sound: 1231 ± 10 m/s
  viscosity: 0.941 ± 0.047 mPa·s
[2]; 308.15 K, x1 = 0.5071
  mass density: 832.1 ± 3.5 kg/m3
  speed of sound: 1239 ± 10 m/s
  viscosity: 0.765 ± 0.04 mPa·s
[2]; 308.15 K, x1 = 0.6494
  mass density: 839.1 ± 3.5 kg/m3
  speed of sound: 1249 ± 10 m/s
  viscosity: 0.651 ± 0.035 mPa·s
[2]; 308.15 K, x1 = 0.8136
  mass density: 846 ± 3.6 kg/m3
  speed of sound: 1262 ± 10 m/s
  viscosity: 0.577 ± 0.031 mPa·s
[2]; 308.15 K, x1 = 0.91
  mass density: 852.6 ± 3.6 kg/m3
  speed of sound: 1268 ± 10 m/s
  viscosity: 0.566 ± 0.031 mPa·s
[2]; 308.15 K, x1 = 1
  mass density: 855.5 ± 3.6 kg/m3
  speed of sound: 1276 ± 10 m/s
  viscosity: 0.553 ± 0.03 mPa·s

## CCc1ccccc1 [ethylbenzene] + CCCO
[2]; 298.15 K, x1 = 0.109
  mass density: 811.4 ± 3 kg/m3
  speed of sound: 1227 ± 10 m/s
  viscosity: 1.543 ± 0.038 mPa·s
[2]; 298.15 K, x1 = 0.1677
  mass density: 817.3 ± 3.1 kg/m3
  speed of sound: 1233 ± 10 m/s
  viscosity: 1.375 ± 0.034 mPa·s
[2]; 298.15 K, x1 = 0.3777
  mass density: 828.5 ± 3.1 kg/m3
  speed of sound: 1257 ± 10 m/s
  viscosity: 0.976 ± 0.025 mPa·s
[2]; 298.15 K, x1 = 0.5006
  mass density: 837.9 ± 3.1 kg/m3
  speed of sound: 1266 ± 10 m/s
  viscosity: 0.839 ± 0.022 mPa·s
[2]; 298.15 K, x1 = 0.6429
  mass density: 845.1 ± 3.2 kg/m3
  speed of sound: 1277 ± 10 m/s
  viscosity: 0.712 ± 0.019 mPa·s
[2]; 298.15 K, x1 = 0.8074
  mass density: 853.3 ± 3.3 kg/m3
  speed of sound: 1287 ± 11 m/s
  viscosity: 0.638 ± 0.017 mPa·s
[2]; 298.15 K, x1 = 0.8951
  mass density: 857 ± 3.3 kg/m3
  speed of sound: 1299 ± 11 m/s
  viscosity: 0.606 ± 0.017 mPa·s
[2]; 298.15 K, x1 = 1
  mass density: 862 ± 3.3 kg/m3
  speed of sound: 1312 ± 11 m/s
  viscosity: 0.628 ± 0.017 mPa·s
[2]; 308.15 K, x1 = 0.109
  mass density: 803.7 ± 3.4 kg/m3
  speed of sound: 1194 ± 10 m/s
  viscosity: 1.226 ± 0.031 mPa·s
[2]; 308.15 K, x1 = 0.1677
  mass density: 807.1 ± 3.4 kg/m3
  speed of sound: 1202 ± 10 m/s
  viscosity: 1.098 ± 0.028 mPa·s
[2]; 308.15 K, x1 = 0.3777
  mass density: 823.5 ± 3.5 kg/m3
  speed of sound: 1224 ± 10 m/s
  viscosity: 0.809 ± 0.021 mPa·s
[2]; 308.15 K, x1 = 0.5006
  mass density: 833.1 ± 3.5 kg/m3
  speed of sound: 1233 ± 10 m/s
  viscosity: 0.702 ± 0.019 mPa·s
[2]; 308.15 K, x1 = 0.6429
  mass density: 839 ± 3.5 kg/m3
  speed of sound: 1245 ± 10 m/s
  viscosity: 0.616 ± 0.017 mPa·s
[2]; 308.15 K, x1 = 0.8074
  mass density: 844.3 ± 3.6 kg/m3
  speed of sound: 1258 ± 10 m/s
  viscosity: 0.562 ± 0.016 mPa·s
[2]; 308.15 K, x1 = 0.8951
  mass density: 850 ± 3.6 kg/m3
  speed of sound: 1264 ± 10 m/s
  viscosity: 0.542 ± 0.015 mPa·s
[2]; 308.15 K, x1 = 1
  mass density: 855.5 ± 3.6 kg/m3
  speed of sound: 1276 ± 10 m/s
  viscosity: 0.553 ± 0.015 mPa·s

## CCc1ccccc1 [ethylbenzene] + CCO
[2]; 298.15 K, x1 = 0.0712
  mass density: 795 ± 2.9 kg/m3
  speed of sound: 1170 ± 10 m/s
  viscosity: 1.026 ± 0.026 mPa·s
[2]; 298.15 K, x1 = 0.1551
  mass density: 807.2 ± 3 kg/m3
  speed of sound: 1185 ± 10 m/s
  viscosity: 0.947 ± 0.024 mPa·s
[2]; 298.15 K, x1 = 0.2404
  mass density: 817.6 ± 3 kg/m3
  speed of sound: 1203 ± 10 m/s
  viscosity: 0.864 ± 0.022 mPa·s
[2]; 298.15 K, x1 = 0.352
  mass density: 827 ± 3.1 kg/m3
  speed of sound: 1228 ± 10 m/s
  viscosity: 0.789 ± 0.02 mPa·s
[2]; 298.15 K, x1 = 0.4053
  mass density: 836 ± 3.2 kg/m3
  speed of sound: 1235 ± 10 m/s
  viscosity: 0.764 ± 0.02 mPa·s
[2]; 298.15 K, x1 = 0.553
  mass density: 842.3 ± 3.2 kg/m3
  speed of sound: 1261 ± 10 m/s
  viscosity: 0.684 ± 0.018 mPa·s
[2]; 298.15 K, x1 = 0.7382
  mass density: 853.6 ± 3.3 kg/m3
  speed of sound: 1278 ± 10 m/s
  viscosity: 0.639 ± 0.017 mPa·s
[2]; 298.15 K, x1 = 0.8805
  mass density: 858.5 ± 3.3 kg/m3
  speed of sound: 1291 ± 11 m/s
  viscosity: 0.623 ± 0.017 mPa·s
[2]; 298.15 K, x1 = 1
  mass density: 862 ± 3.3 kg/m3
  speed of sound: 1312 ± 11 m/s
  viscosity: 0.628 ± 0.017 mPa·s
[2]; 308.15 K, x1 = 0.0712
  mass density: 789.6 ± 3.3 kg/m3
  speed of sound: 1133 ± 10 m/s
  viscosity: 0.856 ± 0.022 mPa·s
[2]; 308.15 K, x1 = 0.1551
  mass density: 801.6 ± 3.3 kg/m3
  speed of sound: 1155 ± 10 m/s
  viscosity: 0.788 ± 0.02 mPa·s
[2]; 308.15 K, x1 = 0.2404
  mass density: 811.7 ± 3.4 kg/m3
  speed of sound: 1173 ± 10 m/s
  viscosity: 0.719 ± 0.019 mPa·s
[2]; 308.15 K, x1 = 0.352
  mass density: 820 ± 3.4 kg/m3
  speed of sound: 1195 ± 10 m/s
  viscosity: 0.656 ± 0.018 mPa·s
[2]; 308.15 K, x1 = 0.4053
  mass density: 823.2 ± 3.5 kg/m3
  speed of sound: 1203 ± 10 m/s
  viscosity: 0.629 ± 0.017 mPa·s
[2]; 308.15 K, x1 = 0.553
  mass density: 835.8 ± 3.5 kg/m3
  speed of sound: 1223 ± 10 m/s
  viscosity: 0.587 ± 0.016 mPa·s
[2]; 308.15 K, x1 = 0.7382
  mass density: 842.8 ± 3.6 kg/m3
  speed of sound: 1250 ± 10 m/s
  viscosity: 0.548 ± 0.015 mPa·s
[2]; 308.15 K, x1 = 0.8805
  mass density: 851.2 ± 3.6 kg/m3
  speed of sound: 1266 ± 10 m/s
  viscosity: 0.544 ± 0.015 mPa·s
[2]; 308.15 K, x1 = 1
  mass density: 855.5 ± 3.6 kg/m3
  speed of sound: 1276 ± 10 m/s
  viscosity: 0.553 ± 0.015 mPa·s

## CCCO [propan-1-ol]
[1]; 298.15 K
  mass density: 799.6 ± 3 kg/m3
  speed of sound: 1213 ± 10 m/s
  viscosity: 2.042 ± 0.049 mPa·s
[1]; 308.15 K
  mass density: 792 ± 3.3 kg/m3
  speed of sound: 1182 ± 10 m/s
  viscosity: 1.565 ± 0.039 mPa·s

## CCCO [propan-1-ol] + CCc1ccccc1
[2]; 298.15 K, x2 = 0
  mass density: 799.6 ± 3 kg/m3
  speed of sound: 1213 ± 10 m/s
  viscosity: 2.042 ± 0.049 mPa·s
[2]; 308.15 K, x2 = 0
  mass density: 792 ± 3.3 kg/m3
  speed of sound: 1182 ± 10 m/s
  viscosity: 1.565 ± 0.039 mPa·s
